Laboratory results published in patent US20250339409A1, “USES OF PAN BET INHIBITORS” (VYNE THERAPEUTICS INC., priority 2021, published 2025).
Values joined by “and” are separate entries in the source; they are usually repeats but may differ in a detail not shown here. Identical values can stand only once.

What was measured:
[1] = test system: E-cadherin; assay: RHE vitiligo model: E-cadherin secretion by ELISA; assay type: cell-based, human; conditions: for E-Cad (% stimulated ctl) Mean / E-Cad (% stimulated ctl): TNF-α/IFN-γ stimulated RHE; for E-Cad (% stimulated ctl) Mean / E-Cad (% stimulated ctl) / Mean conc E-Cad / Conc E-Cad: 48 h; for E-Cad (% stimulated ctl) / Conc E-Cad: replicates N1-N3; for Mean conc E-Cad / Conc E-Cad: culture medium of RHE, TNF-α 12 ng/ml/IFN-γ 12 ng/ml; for E-Cadherin secretion: RHE stimulated with TNF-α/IFN-γ
Description: […] Three epidermis samples per condition are fixed in 4% formaldehyde solution and embedded in paraffin for further analysis (morphology analysis, melanin and melanocytes localisation/quantification). Three other epidermis samples per condition are put in a specific lysis buffer for total RNA extraction.
At the end of the treatments, culture media is collected (from 3 epidermis per condition), aliquoted and stored at −20° C. until use in ELISA assays. The quantity of MMP-9 secreted by the epidermis at the end of the treatments is analysed using the human MMP-9 Quantikine ELISA kit (Bio-Techne; DMP900). The secretion of E-cadherin in culture media is measured using to human E-cadherin Quantikine ELISA kit (Bio-Techne; DCADE0) dedicated for the measurement of natural human E-cadherin in culture supernates, serum, plasma, urine, and saliva.
The ELISAs are performed following the instructions of the supplier. The quantities of MMP-9 and E-cadherin are determined by comparisons with standard curves performed with recombinant human MMP-9 or E-cadherin provided in the kits.
Quantification of secretion of MMP-9 and E-cadherin by ELISA from collected culture medium was conducted in accordance with Method E. The results, shown in FIG. 5A and FIG. 5B are based on Tables 23 and 24 respectively and presented in percentage of release in comparison to the stimulated control. A statistical analysis (student t-test) was performed to compare the effects of the treatments with the formulations to the vehicle (with $: 0.05>p>0.01; $$: 0.01>p>0.001; and $$$: p<0.001). The same analysis was performed to compare the effects of the vehicle and of the unstimulated control to the stimulated control (with *: 0.05>p>0.01; **: 0.01>p>0.001; and ***: p<0.001). The analysis was performed from three replicates per condition (n=3). The mean of the three values and the standard deviation are presented on the histograms in FIG. 5A and FIG. 5B. As shown in Table 21 and FIG. 5A and consistent with the results of Part A, MMP-9 secretion was increased following the stimulation with the cytokines, which validates the assay.

[2] = test system: back skin of healthy mice; assay: Tolerance assessment of BETi1 0.01% and 1.0% in healthy (non-induced) mice; assay type: in vivo; conditions: for Modified PASI Mean score values / PASI Mean score values: female, Balb/c
Description: Thirty-six (36) female Balb/c mice are weighed and randomly divided into 9 groups (n=4) according to body weight on D1. For mice of native group 1 and tolerance groups 8 and 9, no induction of psoriasis is performed between D1 and D13. Psoriasis is induced in groups 2 to 7 by once daily topical application for 13 days (from day 1 to day 13) of 65 mg of Aldara™ cream (5.0% imiquimod) onto the shaved and epilated back of mice. Before the first treatment, a second randomization of mice of the 6 imiquimod-induced psoriasis groups is performed according to the severity of psoriasis (PASI), and also the body weight of mice. Starting on day 7 and until day 13, 100 mg of test formulations […] and 65 mg of vehicle (groups 1 and […]) are topically administered once daily for 7 consecutive days onto the shaved back skin of mice. Several measurements are taken during treatment period from day 7 to day 14: psoriasis index (PASI), body weight, use of enrichment and mortality. At the end of treatment period, TEWL is assessed, and blood and skin samples are collected. Histological analysis of skin samples is used for microscopic scoring of psoriasis and the determination of the thickness of parakeratosis and epidermis and blood analysis is used for assessing the level of proinflammatory biomarkers (cytokines assays). The effect of treatment of psoriasis induced mice with BETi formulations at the four dose levels are compared with Dermoval® cream containing 0.05% clobetasol propionate (reference) and vehicle (positive control) and also with healthy mice treated with vehicle (negative control).
The tolerance assessment to treatments with 0.01% and 1.0% BETi is performed daily during the treatment period (D7 to D13) as well as on the day mice are sacrifice (D14), and takes into account the following 5 parameters:
The presence of erythema on the skin with the following scoring grid: • 0=no or no more erythema on the skin, • 1=weak erythema on the skin, • 2=moderate erythema on the skin, • 3=important erythema on the skin, • 4=severe erythema on the skin.
The presence of induration of the skin with the following scoring grid: • 0=no or no more induration of the skin, • 1=weak induration of the skin, • 2=moderate induration of the skin, • 3=important induration of the skin, • 4=severe induration of the skin.
The presence of ulceration of the skin with the following scoring grid: • 0=no or no more ulceration of the skin, • 1=weak ulceration of the skin, • 2=moderate ulceration of the skin, • 3=important ulceration of the skin, • 4=severe ulceration of the skin.
The presence of necrosis of the skin with the following scoring grid: • 0=no or no more necrosis of the skin, • 1=weak necrosis of the skin, • 2=moderate necrosis of the skin, • 3=important necrosis of the skin, • 4=severe necrosis of the skin.
The presence of peeling of the skin with the following scoring grid: • 0=no or no more peeling of the skin, • 1=weak peeling of the skin, • 2=moderate peeling of the skin, • 3=important peeling of the skin, • 4=severe peeling of the skin.
The investigation addressed, amongst other things, the effect of the different BETi1 concentrations (0.001%, 0.01%, 0.1% and 1.0%) on various parameters. Tolerance was tested at two BETi1 concentrations (0.01% and 1%) in healthy mice.

For `Cn1cc(-c2cccc(O)c2Oc2ccccc2)c2cc[nH]c2c1=O` [BETi1], the “E-Cad (% stimulated ctl) Mean” value ([1]; BETi1 0.001%) was 138%, the “E-Cad (% stimulated ctl)” value ([1]; BETi1 0.001%) was 129% (2×) and 156% and the “Mean conc E-Cad” value ([1]; BETi1 0.001%) was 3.2 ng/mL. For the same compound, the “Conc E-Cad” value ([1]; BETi1 0.001%) was 3.0 ng/ml (2×) and 3.6 ng/ml, the “E-Cad (% stimulated ctl) Mean” value ([1]; BETi1 0.01%) was 118% and the “E-Cad (% stimulated ctl)” value ([1]; BETi1 0.01%) was 117% and 109% and 128%. For the same compound, the “Mean conc E-Cad” value ([1]; BETi1 0.01%) was 2.7 ng/mL, the “Conc E-Cad” value ([1]; BETi1 0.01%) was 2.7 ng/mL and 2.5 ng/mL and 2.9 ng/mL and the “E-Cad (% stimulated ctl) Mean” value ([1]; BETi1 0.1%) was 59%. The “E-Cad (% stimulated ctl)” value ([1]; BETi1 0.1%) was 61% and 56% and 62%, the “Mean conc E-Cad” value ([1]; BETi1 0.1%) was 1.4 ng/mL and the “Conc E-Cad” value ([1]; BETi1 0.1%) was 1.4 ng/ml (2×) and 1.3 ng/ml. For the same compound, the “E-Cad (% stimulated ctl) Mean” value ([1]; BETi1 1%) was 72%, the “E-Cad (% stimulated ctl)” value ([1]; BETi1 1%) was 71% and 72% and 74% and the “Mean conc E-Cad” value ([1]; BETi1 1%) was 1.7 ng/mL. The “Conc E-Cad” value ([1]; BETi1 1%) was 1.6 ng/ml and 1.7 ng/ml (2×), the E-Cadherin secretion ([1]; listed as 1% BETi1) was “about 118%” and the E-Cadherin secretion ([1]; listed as BETi1 0.1%) was 59%. The “Body weight, individual mouse” value ([2]; Tolerance, healthy mice, D 1, listed as BETi1 1.0%) was 18.49, the Mean body weights ([2]; Tolerance, healthy mice, D 11, listed as BETi1 1.0%) was 18.97 and the “Body weight, individual mouse” value ([2]; Tolerance, healthy mice, D 14, listed as BETi1 1.0%) was 19.58. The “Modified PASI Mean score values” ([2]; mouse, in vivo) was 0.00, the “Modified PASI Mean score values” ([2]; mouse, in vivo, 1 study day) was 0.00 and the “PASI Mean score values” ([2]; mouse, in vivo, 2 study day) was 0.00. The “PASI Mean score values” ([2]; mouse, in vivo, 3 study day) was 0.00, the “PASI Mean score values” ([2]; mouse, in vivo, 4 study day) was 0.00 and the “PASI Mean score values” ([2]; mouse, in vivo, 5 study day) was 0.00. The “PASI Mean score values” ([2]; mouse, in vivo, 6 study day) was 0.00, the “PASI Mean score values” ([2]; mouse, in vivo, 7 study day) was 0.00 and the “PASI Mean score values” ([2]; mouse, in vivo, 8 study day) was 0.00. The “Modified PASI Mean score values” ([2]; mouse, in vivo, 9 study day) was 0.00, the “PASI Mean score values” ([2]; mouse, in vivo, 9 study day) was 0.00 and the “Modified PASI Mean score values” ([2]; mouse, in vivo, 10 study day) was 0.00. For the same compound, the “PASI Mean score values” ([2]; mouse, in vivo, 10 study day) was 0.00, the “Modified PASI Mean score values” ([2]; mouse, in vivo, 11 study day) was 0.00 and the “PASI Mean score values” ([2]; mouse, in vivo, 11 study day) was 0.00. The “Modified PASI Mean score values” ([2]; mouse, in vivo, 12 study day) was 0.00, the “PASI Mean score values” ([2]; mouse, in vivo, 12 study day) was 0.00 and the “Modified PASI Mean score values” ([2]; mouse, in vivo, 13 study day) was 0.00. The “PASI Mean score values” ([2]; mouse, in vivo, 13 study day) was 0.00, the “Modified PASI Mean score values” ([2]; mouse, in vivo, 14 study day) was 0.00 and the “PASI Mean score values” ([2]; mouse, in vivo, 14 study day) was 0.00. For the same compound, the “local skin reaction to treatment” value ([2]; mouse, in vivo) was “did not experience any noticeable local skin reaction”.
